Counter-ions that a name gives are not always drawn. Some results are limits rather than exact numbers.

For orientation: EC50 means the concentration needed to bring the measured effect to its halfway point.

In this assay the target is T1, Zinc finger protein mex-5 (Caenorhabditis elegans, UniProt Q9XUB2).
T1 sequence (Q9XUB2 whole entry): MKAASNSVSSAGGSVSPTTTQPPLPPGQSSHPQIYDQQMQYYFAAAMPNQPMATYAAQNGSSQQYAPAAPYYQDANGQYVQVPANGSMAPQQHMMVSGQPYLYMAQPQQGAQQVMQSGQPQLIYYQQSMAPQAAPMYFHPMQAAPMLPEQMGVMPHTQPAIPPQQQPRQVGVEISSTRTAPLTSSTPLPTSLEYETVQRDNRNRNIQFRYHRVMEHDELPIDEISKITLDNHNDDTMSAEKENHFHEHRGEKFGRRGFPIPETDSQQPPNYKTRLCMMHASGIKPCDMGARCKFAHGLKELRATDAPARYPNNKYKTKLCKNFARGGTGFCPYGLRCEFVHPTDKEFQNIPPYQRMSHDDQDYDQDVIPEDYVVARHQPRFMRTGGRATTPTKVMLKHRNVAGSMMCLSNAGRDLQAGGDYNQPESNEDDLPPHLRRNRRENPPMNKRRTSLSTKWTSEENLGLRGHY
Kind of assay: MEX-5/TCR-2 RNA interaction inhibitors, dose response, biochemical, C. elegans, fluorescence polarization (AID 1960). On the technique in general: Polarisation of emitted light reports the rotation of a fluorescent probe.
As to `Cc1nnc(SC(=Cc2ccc(OCc3ccc(C(=O)O)cc3)cc2)C(=O)O)[nH]1` [4-[[4-[(E)-2-[(5-methyl-1H-1,2,4-triazol-3-yl)sulfanyl]-3-oxidanyl-3-oxidanylidene-prop-1-enyl]phenoxy]methyl]benzoic acid], the EC50 is 3.38 µM. In other words, the single-digit micromolar range.

As to `COc1cc(S(=O)(=O)Nc2ccc(C)cc2)ccc1NC=C1C(=O)N(C)C(=O)C(C#N)=C1C` [4-[[(Z)-(5-cyano-1,4-dimethyl-2,6-dioxopyridin-3-ylidene)methyl]amino]-3-methoxy-N-(4-methylphenyl)benzenesulfonamide], the concentration giving a half-maximal response (EC50) came to 23.9 µM.

`CC1(C)CC(=O)C2=C(C1)OC(=N)C(C#N)C2c1ccc(OC(=O)N2CCOCC2)cc1` (stereo not given) [4-morpholinecarboxylic acid [4-(2-amino-3-cyano-7,7-dimethyl-5-oxo-6,8-dihydro-4H-1-benzopyran-4-yl)phenyl] ester] showed an EC50 of over 300 µM. `Cc1cc(CN=Nc2ccc([N+](=O)[O-])cn2)c(C)n1-c1ccc(C(=O)O)cc1` [4-{2,5-dimethyl-3-[2-(5-nitro-2-pyridinyl)carbonohydrazonoyl]-1H-pyrrol-1-yl}benzoic acid]: the EC50 was determined as 111 µM. With `Cc1sc2ncnc(N=NC(C)c3ccccn3)c2c1C` (stereo not given) [5,6-dimethyl-N-(1-pyridin-2-ylethylideneamino)thieno[2,3-d]pyrimidin-4-amine], it took 46.7 µM to reach a half-maximal effect (EC50). The same measure for `Fc1ccc(C2=Nc3ncnn3C(c3ccco3)C2)cc1` (stereo not given) [5-(4-fluorophenyl)-7-(2-furanyl)-1,7-dihydro-[1,2,4]triazolo[1,5-a]pyrimidine]: 12.8 µM. Turning to `NC(=NNC=c1ccc(=C2C=CC(=O)C(C(=O)O)=C2)o1)N[N+](=O)[O-]` [5-(5-{2-[amino(nitroimino)methyl]carbonohydrazonoyl}-2-furyl)-2-hydroxybenzoic acid], the concentration for a half-maximal effect (EC50) was 26.1 µM. Then `c1ccc(C2=Nc3nnnn3C(c3cccs3)C2)cc1` (stereo not given) [5-Phenyl-7-thiophen-2-yl-4,7-dihydro-tetrazolo[1,5-a]pyrimidine], with over 300 µM.

Turning to `COc1cc(CN=Nc2[nH]c(=O)nnc2C)ccc1O` [5-[2-[(E)-(3-methoxy-4-oxocyclohexa-2,5-dien-1-ylidene)methyl]hydrazinyl]-6-methyl-2H-1,2,4-triazin-3-one], the EC50 is 31.1 µM. Then `Cc1cc(C=NNC(=O)c2cccc(N(C)C)c2)c(C)n1-c1cc(C(=O)O)cc(C(=O)O)c1` [5-[3-((E)-{[3-(dimethylamino)benzoyl]hydrazono}methyl)-2,5-dimethyl-1H-pyrrol-1-yl]isophthalic acid], with 143 µM.

On to `COC1=CC(CN=Nc2[nH]c(=O)nnc2C)C=C([N+](=O)[O-])C1=O` (stereo not given) [5-[[(E)-(3-methoxy-5-nitro-4-oxo-1-cyclohexa-2,5-dienylidene)methyl]hydrazo]-6-methyl-2H-1,2,4-triazin-3-one], for which the concentration giving a half-maximal response (EC50) turned out to be 10.8 µM.

With `O=C1N=c2ccc(Br)cc2=C1NNc1nnn[nH]1` [5-bromanyl-3-[2-(2H-1,2,3,4-tetrazol-5-yl)hydrazinyl]indol-2-one], a half-maximal response (EC50) required 5.18 µM. This EC50 lies about 2.1-fold lower than the previous one. `Cc1ncc(C=O)c(CNNC(=O)c2cc(Br)ccc2O)c1O` [5-bromanyl-N'-[(Z)-[5-(hydroxymethyl)-2-methyl-3-oxidanylidene-pyridin-4-ylidene]methyl]-2-oxidanyl-benzohydrazide] yielded an EC50 of 5.72 µM.

The molecule `Cc1cccc(NNC2=c3cc(Br)ccc3=NC2=O)c1` [5-bromo-3-[2-(3-methylphenyl)hydrazinyl]indol-2-one] showed a 50% effective concentration (EC50) of 26.9 µM. The same measure for `O=C(NN=Cc1c(O)ccc2ccccc12)c1cncc(Br)c1` [5-bromo-N'-[(Z)-(2-oxo-1-naphthalenylidene)methyl]-3-pyridinecarbohydrazide]: 256 µM; for `Cc1ccc(N/N=C2/C(=O)Nc3ccc(F)cc32)cc1` [5-fluoro-3-[2-(4-methylphenyl)hydrazono]indolin-2-one]: over 300 µM; for `COc1cccc(C2C3CN(C)CCC3=C(C#N)C(=N)C2(C#N)C#N)c1OC` (stereo not given) [6-Amino-8-(2,3-dimethoxy-phenyl)-2-methyl-2,3,8,8a-tetrahydro-1H-isoquinoline-5,7,7-tricarbonitrile]: 8.49 µM. Then `CCCN1CCC2=C(C#N)C(=N)C(C#N)(C#N)C(c3cc(OC)ccc3OC)C2C1` (stereo not given) [6-Amino-8-(2,5-dimethoxy-phenyl)-2-propyl-2,3,8,8a-tetrahydro-1H-isoquinoline-5,7,7-tricarbonitrile], with 25.5 µM; and `N#CC1=C2CCOCC2C(c2cccnc2)C(C#N)(C#N)C1=N` (stereo not given) [6-Amino-8-pyridin-3-yl-8,8a-dihydro-1H,3H-isochromene-5,7,7-tricarbonitrile], with over 300 µM; and `O=C(Cc1nc2cc([N+](=O)[O-])ccc2[nH]c1=O)c1ccccc1` [6-Nitro-3-(2-oxo-2-phenyl-ethylidene)-3,4-dihydro-1H-quinoxalin-2-one], with over 300 µM. Take `CN1CCC2=C(C#N)C(=N)C(C#N)(C#N)C(c3ccncc3)C2C1` (stereo not given) [6-amino-2-methyl-8-(4-pyridyl)-1,3,8,8a-tetrahydroisoquinoline-5,7,7-tricarbonitrile]: the concentration giving a half-maximal response (EC50) is 7.73 µM. As to `CCOC(=O)C1=C(C)OC(=N)C(C#N)C1c1ccc(O)c(OC)c1` (stereo not given) [6-amino-5-cyano-4-(4-hydroxy-3-methoxyphenyl)-2-methyl-4H-pyran-3-carboxylic acid ethyl ester], the half-maximal effective concentration (EC50) was over 300 µM. The same measure for `CN1CCC2=C(C#N)C(=N)C(C#N)(C#N)C(c3cccc(Cl)c3Cl)C2C1` (stereo not given) [6-azanyl-8-[2,3-bis(chloranyl)phenyl]-2-methyl-1,3,8,8a-tetrahydroisoquinoline-5,7,7-tricarbonitrile]: 13.5 µM. Then `O=NC1CC2(CC(N=O)C1N=O)OCCO2` (stereo not given) [9-(hydroxyamino)-8-nitroso-1,4-dioxaspiro[4.5]dec-8-en-7-one oxime], with 13 µM. The same measure for `Cc1ccc(N=CC2Sc3ccccc3NC2=O)cc1` (stereo not given) [(2E)-2-(p-toluidinomethylene)-4H-1,4-benzothiazin-3-one]: over 300 µM; for `CN(C)[C@@H]1C(=O)C(C(N)=O)C(=O)[C@@]2(O)C(=O)C3C(=O)c4c(O)cccc4[C@@](C)(O)[C@H]3[C@H](O)[C@@H]12` (stereo partly drawn) [(2E,4S,4aR,5S,5aR,6S,12aS)-2-[azanyl(oxidanyl)methylidene]-4-(dimethylamino)-6-methyl-5,6,10,11,12a-pentakis(oxidanyl)-4,4a,5,5a-tetrahydrotetracene-1,3,12-trione]: 29.9 µM. For the molecule `COc1ccc(C=C2CCCC(C(=O)C(F)(F)F)C2=O)cc1OC` (stereo not given) [(2E,6Z)-2-(3,4-dimethoxybenzylidene)-6-(2,2,2-trifluoro-1-hydroxyethylidene)cyclohexanone], the concentration for a half-maximal effect (EC50) is 254 µM. `CN(C)c1ccc(O)c2c1CC1CC3C(N(C)C)C(=O)C(C(N)=O)C(=O)[C@@]3(O)C(=O)C1C2=O` (stereo partly drawn) [(2E,12aS)-2-[azanyl(oxidanyl)methylidene]-4,7-bis(dimethylamino)-10,11,12a-tris(oxidanyl)-4a,5,5a,6-tetrahydro-4H-tetracene-1,3,12-trione;hydrochloride] had an EC50 of 37 µM. The molecule `COc1ccc(N=C(C)c2sc3ccccc3c2O)cc1` [(2Z)-2-[1-(4-methoxyanilino)ethylidene]-1-benzothiophen-3-one] displayed an EC50 of 17.7 µM. `N#CC(C(=O)c1cc2ccccc2o1)c1nc2ccccc2s1` (stereo not given) [(2Z)-3-(1-benzofuran-2-yl)-2-(3H-1,3-benzothiazol-2-ylidene)-3-oxidanylidene-propanenitrile] had an EC50 of over 300 µM.

The values above are taken from BindingDB's records for doi:10.7270/Q2D798VP (Broad Institute, 2009).
